Results on eleven compounds are retold here after ChEMBL document CHEMBL1201862, “PubChem BioAssay data set” (2004).

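Method: 48-hour compound exposure of cells in 96-well plates, five concentrations, linear interpolation of endpoints. The concentration for 50% growth inhibition is given as GI50.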 Calls of active or inactive are those of the source. Cut-off read from the data, not from the text of the source: active = GI50 up to about 1.1 µM and inactive = higher.

Common to all, as to experiment: inhibition of tumour cell growth, NCI panel, 48 h
Experiment [1] concerns RXF 393.
In experiment [2] the test system is NCI/ADR-RES.
In experiment [3] the test system is K562.
Experiment [4] has as its system SK-MEL-5.
For experiment [5], the system named is UACC-257.
Experiment [6] relates to UACC-62.
Experiment [7] deals with SF-295.
The subject of experiment [8] is M14.
Experiment [9] concerns T47D.
The subject of experiment [10] is CAKI-1.
Experiment [11] relates to U-251.
The subject of experiment [12] is LOX IMVI.
In experiment [13] the test system is SK-MEL-2.
In experiment [14] the test system is OVCAR-3.
For experiment [15], the system named is OVCAR-8.
The subject of experiment [16] is NCI-H226.
Experiment [17] relates to MDA-N.
Experiment [18] has as its system Malme-3M.
Experiment [19] concerns SR.
Experiment [20] relates to IGROV-1.

As to `O=C(Nc1ccc(Cl)cc1C(F)(F)F)C(=O)Nn1c(S)nc2ccccc2c1=O`, the GI50 in [1], in experiment [2], in [3], in [4], in experiment [5] and in experiment [6] was > 100 µM (inactive) throughout. Further, the GI50 in experiment [7], in experiment [8], in experiment [9], in experiment [10], in [11] and in experiment [12] was > 100 µM (inactive) each time. Further, the GI50 in experiment [13], in [14], in experiment [15], in experiment [16] and in experiment [17] was > 100 µM (inactive) each time.

Regarding `O=C1CCCCC/C1=C\c1cccc([N+](=O)[O-])c1`, the GI50 was 28.7 µM (inactive) in experiment [1]; 34.1 µM (inactive) in [2]; 28.5 µM (inactive) in experiment [18]; 31.9 µM (inactive) in experiment [3]; 18.4 µM (inactive) in [4]; 11.6 µM (inactive) in experiment [19]. The GI50 in experiment [5] is 22.4 µM (inactive); in experiment [6] it was 22.5 µM (inactive); in experiment [7], 23.2 µM (inactive); in [8], 26.5 µM (inactive); in experiment [9], 36 µM (inactive); in experiment [10] it was 36.1 µM (inactive). Besides, the GI50 is 27.4 µM (inactive) in experiment [11]; 19.4 µM (inactive) in experiment [20]; 29.6 µM (inactive) in [13]; 28.8 µM (inactive) in [14]; 33 µM (inactive) in experiment [15]; 53.7 µM (inactive) in experiment [17].

Consider `CCCCNC(=S)c1ccc(OC(=O)Nc2ccc(Cl)cc2)cc1`, for which the GI50 in experiment [2] was 12.4 µM (inactive); in experiment [18], 79.8 µM (inactive); in experiment [3], 1.83 µM (inactive); in experiment [4], 20 µM (inactive); in [19] it was 16.3 µM (inactive); in [5] it was 77.4 µM (inactive). In addition, the GI50 in experiment [6] is 0.914 µM (active); in [7], > 100 µM (inactive); in experiment [8], 9.27 µM (inactive); in [9] it was 58.6 µM (inactive); in experiment [10], 18.5 µM (inactive); in experiment [11], > 100 µM (inactive). For the same compound, the GI50 in experiment [20] is 3.02 µM (inactive); in experiment [12] it was 0.573 µM (active); in [13], 19.3 µM (inactive); in [14], 66.5 µM (inactive); in [15], 12.6 µM (inactive); in experiment [17] it was > 100 µM (inactive).

For the compound `CSc1nc2ccccc2c(=O)n1/N=C1\C(=O)N(CN2CCCCC2)c2ccc(Cl)cc21`, the GI50 in [1] is 17.5 µM (inactive); in [2], 34.8 µM (inactive); in experiment [18], > 100 µM (inactive); in experiment [3] it was 5.22 µM (inactive); in [4] it was 27.9 µM (inactive); in experiment [5] it was 20.4 µM (inactive). Also, the GI50 in experiment [6] is 8.89 µM (inactive); in [7], 37 µM (inactive); in experiment [8], 30.5 µM (inactive); in experiment [9], 13.3 µM (inactive); in experiment [10], 23.3 µM (inactive); in [11], 33.3 µM (inactive). Besides, the GI50 in experiment [20] was 13.5 µM (inactive); in experiment [12], 14.2 µM (inactive); in [13], 19.5 µM (inactive); in experiment [14], 59.3 µM (inactive); in experiment [15] it was 37.2 µM (inactive); in [16] it was 75.9 µM (inactive). Further, the GI50 in experiment [17] was 21.8 µM (inactive).

In the case of `COc1ccc(CC2c3cc4c(cc3CCN2C)OCO4)c(C=O)c1OC` (stereo not given), the GI50 in [2], in experiment [18], in experiment [3], in [4], in [5] and in [6] was > 100 µM (inactive) each time. Besides, the GI50 in [7] is > 100 µM (inactive); in [8] it was > 100 µM (inactive); in experiment [9], > 100 µM (inactive); in [10], 60.5 µM (inactive); in experiment [11], > 100 µM (inactive); in experiment [20] it was > 100 µM (inactive). The GI50 in experiment [12] was > 100 µM (inactive); in [13], > 100 µM (inactive); in [14], > 100 µM (inactive); in experiment [15], > 100 µM (inactive); in experiment [16] it was 57.9 µM (inactive); in [17], > 100 µM (inactive).

For `O=C1CCc2nc3ncccc3cc2C1`, the GI50 in experiment [1] is > 100 µM (inactive); in [2], > 100 µM (inactive); in [18], > 100 µM (inactive); in [3], 29.2 µM (inactive); in experiment [4], > 100 µM (inactive); in experiment [5], > 100 µM (inactive). Also, the GI50 in experiment [7] was > 100 µM (inactive); in [8] it was > 100 µM (inactive); in [9] it was > 100 µM (inactive); in experiment [10], > 100 µM (inactive); in experiment [20], 58.2 µM (inactive); in experiment [13], > 100 µM (inactive). Moreover, the results for the GI50 in experiment [14], in [16] and in experiment [17] were 47.2 µM (inactive), > 100 µM (inactive) and 63.5 µM (inactive), respectively.

`N#CCCN(CCC#N)c1ccc(/C=C2\N=C(c3ccccc3)N(c3ccc(C(=O)O)cc3)C2=O)cc1`: the GI50 in [1] is 40.7 µM (inactive); in experiment [2], > 100 µM (inactive); in experiment [3], 38.2 µM (inactive); in experiment [4], 36.6 µM (inactive); in experiment [5], 37.2 µM (inactive); in [6] it was 23.8 µM (inactive). In addition, the GI50 is 48.8 µM (inactive) in [7]; 72.1 µM (inactive) in experiment [8]; 40.7 µM (inactive) in [9]; 30.2 µM (inactive) in experiment [11]; 20.3 µM (inactive) in [20]; 30.9 µM (inactive) in experiment [12]. In addition, the GI50 is 52.5 µM (inactive) in experiment [13]; 40.1 µM (inactive) in experiment [14]; 26.2 µM (inactive) in [15]; 27.9 µM (inactive) in [16]; > 100 µM (inactive) in [17].

With `C[C@@H]1C(=O)O[C@@H]2C[C@@]1(C)[C@@H]1C(=O)C3(O)OC14C2(C)OC(=O)[C@@]4(O)CCC1C3C(O)C=C2CC=CC(=O)[C@@]21C` (stereo not given in full), the GI50 in experiment [1] is 13.8 µM (inactive); in experiment [2], > 100 µM (inactive); in [3] it was 23.9 µM (inactive); in experiment [4], 33 µM (inactive); in [19], 18.2 µM (inactive); in experiment [5], 31 µM (inactive). For the same compound, the GI50 in experiment [6] was 22 µM (inactive); in experiment [7] it was 33.3 µM (inactive); in [8], 21.6 µM (inactive); in [9] it was 31.3 µM (inactive); in [10] it was 21.3 µM (inactive); in experiment [11], 30.8 µM (inactive). Moreover, the GI50 was 42.3 µM (inactive) in experiment [20], 17.9 µM (inactive) in experiment [13], 31.3 µM (inactive) in [15] and 28.9 µM (inactive) in experiment [17].

For the compound `O=C(O)c1cccc2cccc(-c3cccc4cccc(C(=O)O)c34)c12`, the GI50 in experiment [1], in experiment [2], in [18], in [3], in experiment [4] and in [5] was > 100 µM (inactive) throughout. For the same compound, the GI50 in [6], in experiment [7], in experiment [8], in experiment [9], in experiment [10] and in experiment [11] was > 100 µM (inactive) each time. The GI50 in experiment [20], in [12], in [13], in experiment [14], in experiment [15] and in experiment [16] was > 100 µM (inactive) each time. In experiment [17], the GI50 is > 100 µM (inactive).

As to `COc1ccc(/C=N/NS(=O)(=O)c2ccc(/C=C3\NC(=O)NC3=O)cc2)cc1`, the GI50 in experiment [1], in experiment [2], in [18], in experiment [3], in [4] and in [5] was > 100 µM (inactive) each time. Besides, the GI50 in experiment [6] is > 100 µM (inactive); in experiment [7], 89.5 µM (inactive); in experiment [8], > 100 µM (inactive); in experiment [9] it was > 100 µM (inactive); in [10], > 100 µM (inactive); in [11], 45.2 µM (inactive). The GI50 in experiment [20] was 87.5 µM (inactive); in experiment [12], > 100 µM (inactive); in experiment [13], > 100 µM (inactive); in experiment [14], > 100 µM (inactive); in experiment [15] it was 51.5 µM (inactive); in [16], > 100 µM (inactive). Also, the GI50 in experiment [17] is > 100 µM (inactive).

Consider `Cc1ccc(C(=O)Nc2ccc(CP(=O)(O)O)cc2CP(=O)(O)O)cc1NC(=O)c1cccc(NC(=O)Nc2cccc(C(=O)Nc3cc(C(=O)Nc4ccc(CP(=O)(O)O)cc4CP(=O)(O)O)ccc3C)c2)c1`, for which the GI50 in experiment [1], in experiment [2], in experiment [18], in [3], in experiment [4] and in experiment [5] was > 100 µM (inactive) each time. Moreover, the GI50 in experiment [6], in experiment [7], in experiment [8], in experiment [9], in experiment [10] and in experiment [11] was > 100 µM (inactive) each time. The GI50 in experiment [20], in experiment [12], in experiment [13], in experiment [14], in experiment [15] and in experiment [16] was > 100 µM (inactive) throughout. In addition, in experiment [17], the GI50 was > 100 µM (inactive).
